Assay [1] concerns the target T1, Fatty acid synthase (Homo sapiens, UniProt P49327). Nature of the assay: FAS thioesterase domain inhibitors, dose response, biochemical, endpoint fluorescence intensity, uHTS hits (AID 624327).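 Note: fluorescence from hydrolysis of an O-methyl fluorescein acyl ester substrate by the enzyme.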 It is filed as functional.
The target in assay [2] is T1, Fatty acid synthase. Nature of the assay: FAS thioesterase domain inhibitors, dose response, biochemical, kinetic fluorescence intensity (AID 624326).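 Note: rate of fluorescence rise from hydrolysis of a fluorogenic O-methyl fluorescein ester substrate.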 It is filed as functional.
Assay [3] in a line: NIH-3T3 fibroblast cytotoxicity, dose response, cytotoxicity control, cell-based, fluorescence, Alamar Blue, secondary assay (AID 2327).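 Note: NIH-3T3 mouse fibroblasts cultured with fluconazole at 8 µg/mL.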 The format is functional.
Assay [4] can be described thus: C. albicans growth with fluconazole, confirmation, fluorescence, retest (AID 2467). It is filed as functional, cell-based.
The target of assay [5] is T2, Replicative DNA helicase DnaB (Mycobacterium tuberculosis, UniProt P9WMR3).
T2 sequence (P9WMR3 whole entry): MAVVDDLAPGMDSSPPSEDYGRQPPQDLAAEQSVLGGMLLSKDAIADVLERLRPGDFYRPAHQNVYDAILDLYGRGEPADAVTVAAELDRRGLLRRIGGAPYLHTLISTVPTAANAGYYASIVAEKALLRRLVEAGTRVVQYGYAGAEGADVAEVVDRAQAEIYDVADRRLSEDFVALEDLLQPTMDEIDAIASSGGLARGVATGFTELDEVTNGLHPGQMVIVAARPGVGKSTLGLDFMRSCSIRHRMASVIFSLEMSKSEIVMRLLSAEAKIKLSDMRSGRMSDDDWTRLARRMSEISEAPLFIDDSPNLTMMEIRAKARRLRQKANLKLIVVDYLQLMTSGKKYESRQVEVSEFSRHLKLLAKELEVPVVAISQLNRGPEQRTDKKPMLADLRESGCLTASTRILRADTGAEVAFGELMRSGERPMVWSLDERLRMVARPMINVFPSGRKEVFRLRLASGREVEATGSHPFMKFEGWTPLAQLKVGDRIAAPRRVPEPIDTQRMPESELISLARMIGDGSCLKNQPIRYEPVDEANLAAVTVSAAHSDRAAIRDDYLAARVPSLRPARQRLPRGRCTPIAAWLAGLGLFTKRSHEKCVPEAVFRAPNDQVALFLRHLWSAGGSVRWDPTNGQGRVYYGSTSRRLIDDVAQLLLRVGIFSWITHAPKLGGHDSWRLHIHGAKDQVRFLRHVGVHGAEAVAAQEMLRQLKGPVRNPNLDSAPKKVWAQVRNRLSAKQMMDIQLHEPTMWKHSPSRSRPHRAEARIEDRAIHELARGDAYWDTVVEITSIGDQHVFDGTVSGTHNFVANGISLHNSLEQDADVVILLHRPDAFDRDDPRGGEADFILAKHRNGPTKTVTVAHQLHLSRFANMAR
Nature of the assay: DnaB intein splicing inhibitors, dose response, biochemical, cell-free fluorescence (AID 449749). The format is functional.

For assay [6], the target named is T3, Protein RecA (Mycobacterium tuberculosis, UniProt P9WHJ3).
T3 sequence (P9WHJ3 whole entry): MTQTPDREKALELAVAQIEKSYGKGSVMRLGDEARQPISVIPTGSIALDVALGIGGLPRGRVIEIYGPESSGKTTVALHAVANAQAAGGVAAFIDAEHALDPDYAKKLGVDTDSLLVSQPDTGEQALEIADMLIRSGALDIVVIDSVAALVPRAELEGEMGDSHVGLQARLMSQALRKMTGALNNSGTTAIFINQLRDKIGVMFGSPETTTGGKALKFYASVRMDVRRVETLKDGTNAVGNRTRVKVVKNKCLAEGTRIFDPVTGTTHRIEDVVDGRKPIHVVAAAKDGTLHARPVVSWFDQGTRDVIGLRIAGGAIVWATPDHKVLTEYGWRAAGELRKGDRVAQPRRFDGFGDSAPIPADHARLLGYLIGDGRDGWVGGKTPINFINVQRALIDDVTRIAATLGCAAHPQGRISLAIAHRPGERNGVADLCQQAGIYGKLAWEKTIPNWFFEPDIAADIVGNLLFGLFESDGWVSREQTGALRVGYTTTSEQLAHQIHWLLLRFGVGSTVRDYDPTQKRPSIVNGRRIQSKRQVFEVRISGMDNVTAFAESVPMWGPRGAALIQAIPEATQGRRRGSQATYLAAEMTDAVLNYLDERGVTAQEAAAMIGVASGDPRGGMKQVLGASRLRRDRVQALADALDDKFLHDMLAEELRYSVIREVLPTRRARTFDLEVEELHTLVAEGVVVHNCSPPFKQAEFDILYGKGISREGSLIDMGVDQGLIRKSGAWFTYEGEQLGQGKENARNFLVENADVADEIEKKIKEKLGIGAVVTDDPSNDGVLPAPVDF
In words: Fluorescence Cell-Free Homogeneous Dose Retest to Identify Inhibitors of RecA-Intein Splicing Activity. [Related pubchem assays (depositor defined):AID2097, AID2223, AID489010, AID492950]. It is filed as functional.

In assay [7] the test system is H9c2. Nature of the assay: cells. The format is functional, cell-based. To be noted: Rattus norvegicus, H9c2, Myocardium.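 Note: confirmatory concentration-response retest of ultra-high-throughput screening hits for modulation of myocardial damage; cell death induced by hydrogen peroxide oxidative stress; compound pretreatment for 60 min then peroxide exposure for 2 h; potency is for protecting the cells against peroxide damage rather than for killing them.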
Assay [8] is described as follows: HEp-2 cell cytotoxicity, dose response, cytotoxicity control for RSV inhibitor project, HTS (AID 2410). It is filed as functional. To be noted: human respiratory syncytial virus.
Assay [9] can be described thus: Luminescence Cell-Based Dose Retest to Confirm Inhibitors of Cancer Stem Cells. [Related pubchem assays (depositor defined):AID2717, AID2721]. It is filed as functional. The following applies: Homo sapiens.
For assay [10], the target named is T4, Rac GTPase-activating protein 1 (Homo sapiens, UniProt Q9H0H5).
T4 sequence (Q9H0H5 whole entry): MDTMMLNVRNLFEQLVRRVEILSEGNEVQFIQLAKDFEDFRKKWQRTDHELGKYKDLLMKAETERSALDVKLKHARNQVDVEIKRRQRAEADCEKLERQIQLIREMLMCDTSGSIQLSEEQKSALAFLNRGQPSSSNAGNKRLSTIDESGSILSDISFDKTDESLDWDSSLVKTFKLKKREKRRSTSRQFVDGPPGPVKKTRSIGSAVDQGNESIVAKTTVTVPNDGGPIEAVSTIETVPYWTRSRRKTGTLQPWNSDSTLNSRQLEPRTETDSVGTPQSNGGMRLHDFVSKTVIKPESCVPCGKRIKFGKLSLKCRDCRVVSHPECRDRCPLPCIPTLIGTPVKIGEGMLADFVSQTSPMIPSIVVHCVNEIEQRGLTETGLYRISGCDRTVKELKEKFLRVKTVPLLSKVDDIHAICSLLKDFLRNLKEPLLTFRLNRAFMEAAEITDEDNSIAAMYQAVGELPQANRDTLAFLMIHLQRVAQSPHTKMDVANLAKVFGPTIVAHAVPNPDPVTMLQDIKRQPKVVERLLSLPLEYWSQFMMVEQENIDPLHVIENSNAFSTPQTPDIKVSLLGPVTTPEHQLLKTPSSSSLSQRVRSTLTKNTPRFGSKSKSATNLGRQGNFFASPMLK
In words: MgcRacGAP GTPase-activating activity inhibitors, confirmation, biochemical, ADP Hunter fluorescence, primary and confirmatory (AID 624330). It is filed as functional.

Activity calls are given as the source filed them. Some results are limits rather than exact numbers.

T1 sequence (P49327 whole entry, the tested form may be a part): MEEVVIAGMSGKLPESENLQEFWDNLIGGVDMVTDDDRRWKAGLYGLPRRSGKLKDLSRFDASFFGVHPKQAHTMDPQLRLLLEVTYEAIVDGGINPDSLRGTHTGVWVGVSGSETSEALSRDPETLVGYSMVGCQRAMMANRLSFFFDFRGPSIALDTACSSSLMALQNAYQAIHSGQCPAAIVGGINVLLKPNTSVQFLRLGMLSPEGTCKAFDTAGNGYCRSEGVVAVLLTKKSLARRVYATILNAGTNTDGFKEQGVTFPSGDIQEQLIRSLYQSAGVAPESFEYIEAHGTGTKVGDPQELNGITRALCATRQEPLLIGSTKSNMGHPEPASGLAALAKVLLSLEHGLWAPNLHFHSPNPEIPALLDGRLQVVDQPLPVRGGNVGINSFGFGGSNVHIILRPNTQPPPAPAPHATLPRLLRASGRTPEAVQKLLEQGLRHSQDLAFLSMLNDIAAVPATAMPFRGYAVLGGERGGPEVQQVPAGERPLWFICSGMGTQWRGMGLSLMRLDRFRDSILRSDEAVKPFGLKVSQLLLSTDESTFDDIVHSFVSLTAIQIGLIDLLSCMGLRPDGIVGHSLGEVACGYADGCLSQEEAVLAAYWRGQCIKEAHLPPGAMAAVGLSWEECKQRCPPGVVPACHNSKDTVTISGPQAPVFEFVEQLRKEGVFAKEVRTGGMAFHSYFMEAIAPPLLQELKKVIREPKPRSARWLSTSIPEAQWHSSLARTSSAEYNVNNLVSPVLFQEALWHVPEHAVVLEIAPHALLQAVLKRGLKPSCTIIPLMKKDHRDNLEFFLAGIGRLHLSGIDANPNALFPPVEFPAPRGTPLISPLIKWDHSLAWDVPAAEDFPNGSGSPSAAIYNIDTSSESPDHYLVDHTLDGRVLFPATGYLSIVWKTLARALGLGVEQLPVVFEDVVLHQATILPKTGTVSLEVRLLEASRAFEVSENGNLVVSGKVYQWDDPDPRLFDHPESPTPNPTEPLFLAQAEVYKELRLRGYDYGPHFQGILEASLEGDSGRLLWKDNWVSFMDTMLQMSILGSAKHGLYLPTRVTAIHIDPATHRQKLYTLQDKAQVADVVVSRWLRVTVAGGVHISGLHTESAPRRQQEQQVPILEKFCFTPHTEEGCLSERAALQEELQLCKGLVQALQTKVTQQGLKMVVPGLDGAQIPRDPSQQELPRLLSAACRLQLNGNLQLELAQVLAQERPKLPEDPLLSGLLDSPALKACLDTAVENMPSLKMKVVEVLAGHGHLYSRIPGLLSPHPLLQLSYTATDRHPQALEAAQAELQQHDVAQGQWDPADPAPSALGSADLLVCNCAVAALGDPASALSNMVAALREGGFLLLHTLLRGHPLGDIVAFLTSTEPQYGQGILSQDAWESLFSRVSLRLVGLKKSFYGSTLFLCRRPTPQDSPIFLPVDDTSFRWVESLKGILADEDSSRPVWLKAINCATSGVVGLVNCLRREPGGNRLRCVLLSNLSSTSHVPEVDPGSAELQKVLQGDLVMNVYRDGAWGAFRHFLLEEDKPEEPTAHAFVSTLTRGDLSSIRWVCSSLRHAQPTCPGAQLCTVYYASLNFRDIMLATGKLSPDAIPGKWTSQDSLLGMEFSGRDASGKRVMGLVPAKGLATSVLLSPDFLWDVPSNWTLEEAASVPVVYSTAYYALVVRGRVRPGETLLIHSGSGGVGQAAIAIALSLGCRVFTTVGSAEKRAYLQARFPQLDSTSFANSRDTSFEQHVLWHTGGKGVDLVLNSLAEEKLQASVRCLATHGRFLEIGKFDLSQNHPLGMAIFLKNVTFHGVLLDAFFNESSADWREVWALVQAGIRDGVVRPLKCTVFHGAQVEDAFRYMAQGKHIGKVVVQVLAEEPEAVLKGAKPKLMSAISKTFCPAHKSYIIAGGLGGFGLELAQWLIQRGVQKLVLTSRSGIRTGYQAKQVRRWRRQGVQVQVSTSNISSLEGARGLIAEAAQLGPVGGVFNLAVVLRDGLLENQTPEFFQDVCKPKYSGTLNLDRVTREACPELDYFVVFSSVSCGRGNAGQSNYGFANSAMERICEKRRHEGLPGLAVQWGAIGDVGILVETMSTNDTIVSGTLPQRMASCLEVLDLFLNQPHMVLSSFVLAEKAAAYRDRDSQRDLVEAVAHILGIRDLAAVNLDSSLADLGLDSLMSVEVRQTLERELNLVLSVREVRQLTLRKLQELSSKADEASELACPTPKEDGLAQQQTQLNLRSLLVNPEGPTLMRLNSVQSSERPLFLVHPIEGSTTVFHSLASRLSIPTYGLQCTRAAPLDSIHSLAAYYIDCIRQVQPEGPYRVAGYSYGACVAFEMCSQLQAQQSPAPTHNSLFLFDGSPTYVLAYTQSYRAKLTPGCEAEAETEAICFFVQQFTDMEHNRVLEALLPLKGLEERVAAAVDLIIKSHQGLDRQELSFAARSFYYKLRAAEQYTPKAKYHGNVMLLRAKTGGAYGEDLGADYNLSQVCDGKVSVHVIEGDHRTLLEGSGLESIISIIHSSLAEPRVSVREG

Consider `Cc1csc(NC(=O)CCNC(=O)c2ccc([N+](=O)[O-])cc2)n1`, for which the IC50 in assay [1] was 6.85 µM (active); in [2], 7.66 µM (active).

In the case of `O=S(=O)(Cc1ccccc1)N1CCc2ccccc21`, the EC50 was > 160 µM (inactive) in assay [3] and 1.56 µM (active) in [4].

Consider `CCCc1n[nH]c2c1C(c1ccc(OC(=O)N3CCOCC3)cc1)C(C#N)=C(N)O2` (configuration not stated), for which the AC50 in assay [5] is 23.5 µM (active). Moreover, the EC50 in assay [6] was 11.8 µM (active).

Take `NC(=O)c1ccc(NC(=O)COc2cccc3c2CCNC3=O)cc1`: the IC50 in assay [7] is > 79 µM (inactive).

With `O=C(CNC(=O)c1[nH]cnc1C(=O)NCc1ccccc1)OCc1ccccc1`, the IC50 in assay [7] is 40.4 µM (inactive).

Regarding `COc1cc(-n2c(=O)c3ccccc3n(Cc3cc(=O)n4ccccc4n3)c2=O)cc(OC)c1OC`, the IC50 in assay [7] is 18.7 µM (active).

`N#C/C(=C\c1c(F)cccc1Cl)c1nn(-c2ccccc2)c(-n2cccc2)c1C#N`: in [8], the 50% cytotoxic concentration (CC50) was > 50 µM (active). Moreover, the AC50 in assay [9] is 0.966 µM (active); in assay [5] it was 28.9 µM (active). The EC50 in assay [6] was 1.34 µM (inconclusive).

For the molecule `O=C(COC(=O)c1ccc(Cl)c([N+](=O)[O-])c1)NC1CCCC1`, the results for the IC50 in assay [1] and in assay [2] were 3.12 µM (active) and 3.41 µM (active), respectively.

On to `COc1ccc([N+](=O)[O-])cc1C(=O)Nc1ccc(Cc2ccncc2)cc1`, for which the IC50 was 10.9 µM (active) in assay [1] and 11.5 µM (active) in [2].

On to `COC(=O)c1ccc(CNC(=O)/C=C/c2cc([N+](=O)[O-])ccc2OC(F)F)cc1`, for which the IC50 is 3.27 µM (active) in assay [1] and 4.91 µM (active) in assay [2].

As for `COc1ccc(/C=C/C(=O)c2ccccc2)cc1COc1ccc(F)cc1`, the AC50 in assay [5] was 17.1 µM (active). Moreover, the EC50 in assay [6] is 37.2 µM (active).

`N#C/C(=C\c1ccc(-c2cccc([N+](=O)[O-])c2)o1)C(=O)NCCN1CCOCC1`: the IC50 in assay [7] is > 79 µM (inactive).

As to `CC(C)(C)c1ccc(CSc2ccc(S(=O)(=O)N3CCOCC3)cn2)cc1`, the IC50 in assay [1] was 1.03 µM (active); in assay [2], 0.683 µM (active).

Consider `COc1ccc(Cn2c(C)nc3ccc([N+](=O)[O-])cc3c2=O)cc1`, for which the IC50 in assay [1] was 4.97 µM (active); in assay [2], 3.61 µM (active).

As for `Cc1ccc(OCC(=O)NCc2nnc(O)c3ccccc23)cc1`, the IC50 in assay [7] is > 79 µM (inactive).

As to `C[n+]1c(-c2ccccc2)cc(-c2ccc(Cl)cc2)cc1-c1ccccc1.[O-][Cl+3]([O-])([O-])[O-]`, the EC50 in assay [3] was > 160 µM (inconclusive); in assay [4] it was 0.756 µM (active).

Regarding `Cn1ncc(Cl)c1C(=O)NNC(=O)Nc1cccc2ccccc12`, the EC50 in assay [3] was > 160 µM (inactive); in assay [4], > 38 µM (not active).

On to `OC(COc1ccc2c(c1)OCO2)CN1CCCC1` (configuration not stated), for which, in assay [3], the EC50 is 53.2 µM (active).

`CCN(CC)CCn1c2c(c(SCC(=O)Nc3cccc(C(C)=O)c3)nc1=O)CCCC2`: in [7], the IC50 was > 79 µM (inactive).

As to `O=C(CSc1nc(O)c2ccccc2n1)N1CCCCCC1`, in assay [7], the IC50 is 33 µM (inactive).

On to `COc1ccc(C2NC(c3ccc(OC)cc3OC)C(C)C(=O)C2C)c(OC)c1` (configuration not stated), for which the AC50 in assay [5] is > 380 µM (inactive). The EC50 in assay [6] was > 380 µM (inactive). Further, the IC50 in assay [10] is 116 µM (active).

With `CSCCC(NC(=O)c1ccc(Cl)c([N+](=O)[O-])c1)C(=O)N1CCN(C/C=C/c2ccccc2)CC1` (configuration not stated), the IC50 in [1] was 8.52 µM (active); in [2] it was 6.62 µM (active).

Consider `CC1CC(C)CN(C(=O)COC(=O)c2cc([N+](=O)[O-])ccc2N2CCOCC2)C1` (configuration not stated), for which the results for the IC50 in [1] and in assay [2] were 1.3 µM (active) and 1.22 µM (active), respectively.

Consider `CN(C(=O)COC(=O)c1cc([N+](=O)[O-])ccc1N1CCOCC1)C1CCCCC1`, for which the figures for the IC50 in [1] and in assay [2] were 0.383 µM (active) and 0.41 µM (active), respectively.

For the molecule `CC(=O)Nc1cc(-c2ccc(C(=O)N3CCOCC3)cc2)cn2c(-c3ccc(C(C)=O)cc3)cnc12`, in assay [7], the IC50 is > 79 µM (inactive).

`O=C(COC(=O)Cc1nnc(O)c2ccccc12)NNC(=O)c1ccc(Br)cc1`: the IC50 in [7] was > 79 µM (inactive).

With `COc1ccc(C(=O)Nc2cccc(/C(C)=N/NC(=O)c3ccc([N+](=O)[O-])c(C)c3)c2)cc1OC`, the IC50 in assay [7] was > 79 µM (inactive).

As for `O=C1CCCC/C1=N\Nc1ccc(OCc2ccccc2)cc1`, the EC50 in assay [3] is > 160 µM (inconclusive); in [4], > 38 µM (not active).

With `O=[N+]([O-])c1ccc(N2CCOCC2)c2ccncc12`, the AC50 in assay [5] was > 380 µM (inactive). Besides, the EC50 in [6] is 12.2 µM (active).

Consider `CC(Nc1c[nH]c(=O)[nH]c1=O)c1ccccc1` (configuration not stated), for which the AC50 in assay [5] was 23.9 µM (active). The EC50 in assay [6] was 15.5 µM (active).

As usually defined, the IC50 is the midpoint of a concentration-inhibition curve. One may read the EC50 as the concentration needed to bring the measured effect to its halfway point. In general, AC50 refers to the midpoint of the concentration-response curve, whichever way the signal moves. A word on the CC50: it is the concentration giving 50% cytotoxicity.

The record behind these values is ChEMBL document CHEMBL1201862, “PubChem BioAssay data set” (2004).
